Results from patent USRE46511E1, “Fused pyrimidine derivatives for inhibition of tyrosine kinase activity” (HANMI SCIENCE CO., LTD., priority 2010, dated 2017).

Tests used:
JAK3 = biological target: T1, JAK3 (Homo sapiens, UniProt P52333); test: z-lyte kinase assay, JAK3; type: biochemical
T1 construct: purchased Invitrogen
T1 sequence (P52333 1-1124): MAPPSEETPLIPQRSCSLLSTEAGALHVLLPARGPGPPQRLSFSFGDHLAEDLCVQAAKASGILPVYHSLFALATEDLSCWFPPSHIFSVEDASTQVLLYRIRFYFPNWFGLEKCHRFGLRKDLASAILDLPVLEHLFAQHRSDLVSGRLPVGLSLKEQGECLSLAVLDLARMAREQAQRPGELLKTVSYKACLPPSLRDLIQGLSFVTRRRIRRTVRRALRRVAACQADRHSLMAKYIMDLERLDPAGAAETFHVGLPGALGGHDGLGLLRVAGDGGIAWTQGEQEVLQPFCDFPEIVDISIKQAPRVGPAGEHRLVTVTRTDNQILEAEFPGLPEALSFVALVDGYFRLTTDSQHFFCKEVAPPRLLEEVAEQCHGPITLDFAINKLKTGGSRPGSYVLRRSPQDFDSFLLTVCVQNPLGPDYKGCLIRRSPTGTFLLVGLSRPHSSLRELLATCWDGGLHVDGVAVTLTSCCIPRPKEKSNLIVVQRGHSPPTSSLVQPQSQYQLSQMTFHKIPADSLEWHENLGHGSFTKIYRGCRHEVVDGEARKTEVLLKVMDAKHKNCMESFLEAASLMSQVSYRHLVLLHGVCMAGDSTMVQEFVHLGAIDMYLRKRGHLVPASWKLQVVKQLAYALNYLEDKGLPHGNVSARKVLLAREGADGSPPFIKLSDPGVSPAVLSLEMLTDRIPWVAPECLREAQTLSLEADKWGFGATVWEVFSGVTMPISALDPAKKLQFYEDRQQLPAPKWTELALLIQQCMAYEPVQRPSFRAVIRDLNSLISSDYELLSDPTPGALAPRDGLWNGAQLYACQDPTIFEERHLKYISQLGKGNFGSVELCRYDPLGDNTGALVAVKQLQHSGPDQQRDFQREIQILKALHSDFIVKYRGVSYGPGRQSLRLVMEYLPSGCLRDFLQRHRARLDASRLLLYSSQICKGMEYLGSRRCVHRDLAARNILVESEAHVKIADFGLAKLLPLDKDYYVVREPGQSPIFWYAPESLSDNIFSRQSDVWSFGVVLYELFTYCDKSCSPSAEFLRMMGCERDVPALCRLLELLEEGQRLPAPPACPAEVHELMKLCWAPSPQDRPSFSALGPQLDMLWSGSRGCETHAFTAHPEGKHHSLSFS
In short: (§1)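 Each kinase was mixed with peptide substrate, compound (dilution series made at 1–0.0001 μM in 4% DMSO) and ATP added from a 5~300 μM solution, then incubated 60 min at RT. After development reagent and stop solution, fluorescence was read at 400 nm excitation/520 nm emission and IC50 calculated.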

[1] = system: NCI-H1975 (EGFR L858R/T790M); test: Inhibition test for growth of cancer cell expressing EGFR (MTS), NCI-H1975; type: cell-based; details: Homo sapiens; NCI-H1975 cells, 48 hours, MTS; read-out: GI50 NCI-H1975 EGFR L858R/T790M
Protocol: A431 cell line was incubated in a high-glucose DMEM (Dulbecco's Modified Eagle's Medium) supplemented with 10% fetal bovine serum (FBS) and 1% penicillin/streptomycin (Gibco BRL), and HCC827 and NCI-H1975 cell lines were incubated in an RPMI medium supplemented with 10% FBS, 1% penicillin/streptomycin and 1% sodium pyruvate.
The cancer cell lines stored in a liquid nitrogen tank were each quickly thawed at 37° C., and centrifuged to remove the medium. The resulting cell pellet was mixed with a culture medium, incubated in a culture flask at 37° C. under 5% CO2 for 2 to 3 days, and the medium was removed. The remaining cells were washed with DPBS (Dulbecco's Phosphate Buffered Saline) and separated from the flask by using Tripsin-EDTA. […] 100 μl of the diluted cell solution was added to each well of a 96-well plate, and incubated at 37° C. under 5% CO2 for 1 day.
In case that the test compound was not soluble in DMSO, 1% HCl was added thereto and treated in a 40° C. water bath for 30 mins until a complete dissolution was attained. The DMSO solution containing test compound was diluted with a culture medium to a final concentration of 100 μM, and then diluted 10 times serially to 10^−6 μM (a final concentration of DMSO was less than 1%).
The medium was removed from each well of the 96-well plate. And then, 100 μl of a test compound solution was added to each well holding the cultured cells, and the plate was incubated at 37° C. under 5% CO2 for 72 hours (except that NCI-H1975 cells were incubated for 48 hours). After removing the medium from the plate, 50 μA of 10% trichloroacetic acid was added to each well, and the plate was kept at 4° C. for 1 hour to fix the cells to the bottom of the plate. The added 10% trichloroacetic acid solution was removed from each well, the plate was dried, 100 μA of an SRB (Sulforhodamine-B) dye solution at a concentration of 0.4% dissolved in 1% acetic acid was added thereto, and the resulting mixture was reacted for 10 mins at room temperature. After removing the dye solution, the plate was washed with water, and well dried. When the dye solution was not effectively removed by water, 1% acetic acid was used. 150 μA of 10 mM trisma base was added to each well, and the absorbance at 540 nm wavelength was determined with a microplate reader.

ITK = biological target: T2, ITK (Homo sapiens, UniProt Q08881); test: z-lyte kinase assay, ITK; type: biochemical
T2 construct: purchased Invitrogen
T2 sequence (Q08881 1-620): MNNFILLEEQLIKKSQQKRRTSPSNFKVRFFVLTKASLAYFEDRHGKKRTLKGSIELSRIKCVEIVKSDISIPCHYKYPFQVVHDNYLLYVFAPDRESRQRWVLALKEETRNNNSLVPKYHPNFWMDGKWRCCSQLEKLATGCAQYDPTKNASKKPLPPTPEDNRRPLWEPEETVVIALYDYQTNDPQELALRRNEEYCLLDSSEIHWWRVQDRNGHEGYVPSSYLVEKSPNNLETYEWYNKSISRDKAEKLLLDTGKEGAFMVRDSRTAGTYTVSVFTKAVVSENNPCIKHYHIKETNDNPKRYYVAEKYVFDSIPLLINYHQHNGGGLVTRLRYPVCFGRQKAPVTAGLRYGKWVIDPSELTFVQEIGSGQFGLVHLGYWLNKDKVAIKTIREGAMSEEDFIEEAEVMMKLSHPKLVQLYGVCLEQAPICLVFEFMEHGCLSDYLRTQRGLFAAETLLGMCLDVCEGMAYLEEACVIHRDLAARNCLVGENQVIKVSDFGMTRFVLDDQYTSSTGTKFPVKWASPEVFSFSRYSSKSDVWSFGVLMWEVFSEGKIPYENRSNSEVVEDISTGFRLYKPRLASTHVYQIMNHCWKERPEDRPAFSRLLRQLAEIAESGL

BTK = biological target: T3, BTK (Homo sapiens, UniProt Q06187); test: z-lyte kinase assay, BTK; type: biochemical
T3 construct: purchased Invitrogen
T3 sequence (Q06187 whole entry): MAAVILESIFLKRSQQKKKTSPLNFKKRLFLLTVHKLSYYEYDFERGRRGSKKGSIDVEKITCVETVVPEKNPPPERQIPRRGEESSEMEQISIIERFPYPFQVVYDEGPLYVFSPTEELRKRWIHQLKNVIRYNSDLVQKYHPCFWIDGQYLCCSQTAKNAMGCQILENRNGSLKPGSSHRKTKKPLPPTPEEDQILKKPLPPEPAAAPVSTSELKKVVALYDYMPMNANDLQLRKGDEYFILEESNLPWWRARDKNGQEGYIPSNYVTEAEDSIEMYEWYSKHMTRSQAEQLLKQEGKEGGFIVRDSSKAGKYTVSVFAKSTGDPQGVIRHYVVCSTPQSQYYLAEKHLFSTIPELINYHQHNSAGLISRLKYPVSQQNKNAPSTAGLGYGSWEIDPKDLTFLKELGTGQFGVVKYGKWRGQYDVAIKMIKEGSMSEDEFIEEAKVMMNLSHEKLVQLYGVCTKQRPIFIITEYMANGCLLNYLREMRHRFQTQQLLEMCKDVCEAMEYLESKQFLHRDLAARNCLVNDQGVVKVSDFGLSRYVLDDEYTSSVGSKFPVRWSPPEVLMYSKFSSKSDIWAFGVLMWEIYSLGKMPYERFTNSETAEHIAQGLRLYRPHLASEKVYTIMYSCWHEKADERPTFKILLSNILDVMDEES
In short: as §1

RLK = biological target: T4, RLK (Homo sapiens, UniProt P42681); test: z-lyte kinase assay, RLK; type: biochemical
T4 construct: purchased Invitrogen
T4 sequence (P42681 1-527): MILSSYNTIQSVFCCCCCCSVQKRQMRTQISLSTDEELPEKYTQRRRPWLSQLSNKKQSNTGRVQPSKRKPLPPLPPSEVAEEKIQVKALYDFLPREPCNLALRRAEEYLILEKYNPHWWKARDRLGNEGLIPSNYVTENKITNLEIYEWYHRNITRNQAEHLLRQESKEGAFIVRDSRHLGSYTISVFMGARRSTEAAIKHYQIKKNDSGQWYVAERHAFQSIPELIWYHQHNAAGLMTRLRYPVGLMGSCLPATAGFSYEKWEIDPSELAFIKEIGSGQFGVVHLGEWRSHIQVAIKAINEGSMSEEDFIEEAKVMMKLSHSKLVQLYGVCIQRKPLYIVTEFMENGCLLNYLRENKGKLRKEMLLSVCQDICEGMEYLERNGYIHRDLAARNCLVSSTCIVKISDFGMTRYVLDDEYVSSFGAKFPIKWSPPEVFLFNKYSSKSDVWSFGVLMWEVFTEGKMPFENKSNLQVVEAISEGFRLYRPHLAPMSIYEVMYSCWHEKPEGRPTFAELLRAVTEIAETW

IC50 (JAK3): ≤ 50 nM
GI50 [1]: < 50 nM
IC50 (ITK): 50 to 100 nM
IC50 (BTK): ≤ 50 nM
IC50 (RLK): ≤ 50 nM
Compound: C=CC(=O)Nc1cccc(Oc2nc(Nc3ccc(N4CCN(C)CC4)cc3)nc3ccsc23)c1 [Example 1, N-(3-(2-(4-(4-methylpiperazin-1-yl)phenylamino)thieno[3,2-d]pyrimidine-4-yloxy)phenyl)acrylamide]
